From patent US20240383882A1 (Ecstasy LLC, priority 2020, published 2024)
Where a name gives a salt, the structure may show the parent alone. Read-outs that look alike come from different tables or passages of the source.

System: male C57BL/6 mice
Test: 55° C. warm-water tail-flick test (antinociception)
Format: in vivo
Settings: Mus musculus
Experimental: Antinociception was assessed using the 55° C. warm-water tail-flick test. The latency to the first sign of a rapid tail flick was taken as the behavioral endpoint. Each mouse was first tested for baseline latency by immersing its tail in the water and recording the time to response. Mice not responding within 2 secs were excluded from further testing. Responsive mice were then s.c. administered the test compound and tested for antinociception at 30 min, 60 min, 90 min, and 120 min time points afterward. Antinociception was calculated using the following formula: percentage of antinociception=100×(test latency−control latency)/(20−control latency).
The following new compounds were also made and tested to determine the half maximal possible effective dose, or ED50 (mg/kg), in mice, using one of: the warm water tail-flick test as in Table II, spared nerve injury, chronic constriction injury, or Complete Freund's adjuvant induced inflammatory pain. The symbols in the last column are: + indicates ED 50>50 mg/kg; ++ indicates ED 50 is less than or equal to 30 mg/kg.

[1] = sc, 0.5 h, compounds of Table I, s.c., 30 min, 55° C. water, configuration tested as in Table II, read-out: ED50 (mg/kg) at 30 min on C57BL/6 mice in Warm-water Tail-flick Test
[2] = half maximal effective dose in mice, using one of: warm water tail-flick test, spared nerve injury, chronic constriction injury, or Complete Freund's adjuvant induced inflammatory pain (not stated which per compound), read-out: Biological Activity (ED50)

SMILES	ED50 [1]	ED50 [2]	further results
CCOC(C)C1(CCc2cccs2)CCN(C(C)(C)c2ccc(C)nc2)C1 (single isomer, unassigned) [Compound 5]	≤ 30 mg/kg		
N#Cc1ccc(CC[C@@]2(C3CCO3)CCN(Cc3cccnc3)C2)cc1 (single isomer, unassigned) [Compound 11, 4-(2-((R)-3-((R or S)-oxetan-2-yl)-1-(pyridin-3-ylmethyl)pyrrolidin-3-yl)ethyl) benzonitrile]		≤ 30 mg/kg	
Fc1ccc(CC[C@@]2(C3CCO3)CCN(Cc3cccnc3)C2)cc1 (single isomer, unassigned) [Compound 12, 3-(((R)-3-(4-fluorophenethyl)-3-((R or S)-oxetan-2-yl)pyrrolidin-1-yl)methyl)pyridine]		≤ 30 mg/kg	
Cc1ccc(C(C)(C)N2CCC(CCCc3cccs3)(C3CCCO3)C2)cn1 (single isomer, unassigned) [Compound 19]	≤ 30 mg/kg		
N#Cc1ccc(CC[C@]2(C3CCO3)CCN(Cc3cccnc3)C2)cc1 (single isomer, unassigned) [Compound 21, 4-(2-((S)-3-((R or S)-oxetan-2-yl)-1-(pyridin-3-ylmethyl)pyrrolidin-3-yl)ethyl) benzonitrile]		> 50 mg/kg	
CC(C)(c1ccsc1)N1CCC(CCc2cccs2)(C2CCCO2)C1 (single isomer, unassigned) [Compound 24]			ED50 (sc, 0.5 h, compounds of Table III, s.c., 30 min, 55° C. water, configuration tested as in Table IV, read-out: ED50 (mg/kg) at 30 min on C57BL/6 mice in Warm-water Tail-flick Test (same as Table II)): ≤ 30 mg/kg
Cc1ccc(C(C)(C)N2CCC(CCc3cccs3)(c3nnc(C)s3)C2)cn1 (single isomer, unassigned) [Compound 24]	≤ 30 mg/kg		
CC(C)c1nc(C(C)(C)N2CC[C@@](CCc3ccc(S(C)(=O)=O)cc3)(C3CCCO3)C2)cs1 (single isomer, unassigned) [Compound 29, 2-isopropyl-4-(2-((R)-3-(4-(methylsulfonyl)phenethyl)-3-((R or S)-tetrahydrofuran-2-yl)pyrrolidin-1-yl)propan-2-yl)thiazole]		≤ 30 mg/kg	
CC(C)c1nc(C(C)(C)N2CC[C@@](CCc3ccc(C#N)cc3)(C3CCCO3)C2)cs1 (single isomer, unassigned) [Compound 30, 4-(2-((R)-1-(2-(2-isopropylthiazol-4-yl)propan-2-yl)-3-((R or S)-tetrahydrofuran-2-yl)pyrrolidin-3-yl)ethyl) benzonitrile]		> 50 mg/kg	
CCOC(c1ccccc1)[C@]1(CCc2ccc(C#N)cc2)CCN(C(C)(C)c2ccccc2)C1 (single isomer, unassigned) [Compound 31, 4-(2-((R)-3-((R or S)-ethoxy(phenyl)methyl)-1-(2-phenylpropan-2-yl)pyrrolidin-3-yl)ethyl)benzonitrile]		> 50 mg/kg	
CC(O)[C@]1(CCc2ccc(F)cc2)CCN(C(C)(C)c2ccc(S(C)(=O)=O)cc2)C1 (single isomer, unassigned) [Compound 38, (R or S)-1-((R)-3-(4-fluorophenethyl)-1-(2-(4-(methylsulfonyl)phenyl)propan-2-yl)pyrrolidin-3-yl)ethan-1-ol]		> 50 mg/kg	
CC(C)(c1ccccn1)N1CC[C@](COCc2ccccc2)(C2CCCO2)C1 (single isomer, unassigned) [Compound 42]		> 50 mg/kg	
Cc1ccc(C(C)(C)N2CCC(CCc3ccc(F)s3)(CNC(=O)NC(C)C)C2)cn1 (single isomer, unassigned) [Compound 42]	≤ 30 mg/kg		
Cc1ccc(C(C)(C)N2CCC(CCc3ccc(F)s3)(CNC(=O)Nc3ccccc3)C2)cn1 (single isomer, unassigned) [Compound 43]	≤ 30 mg/kg		
OCC1(CCc2ccc(F)cc2)CCN(Cc2cccnc2)C1 (single isomer, unassigned) [Compound 44]	≤ 30 mg/kg		
CCOCC1(CCc2ccc(F)cc2)CCN(Cc2cncc(F)c2)C1 (single isomer, unassigned) [Compound 45]	> 50 mg/kg		

SMILES	ED50 [1]	ED50 [2]	further results
CC(C)(c1ccc(S(C)(=O)=O)cc1)N1CC[C@@](CCc2ccc(F)cc2)(C(O)C(F)(F)F)C1 (single isomer, unassigned) [Compound 50]		> 50 mg/kg	
CCOC(C(F)(F)F)[C@]1(CCc2ccc(C#N)cc2)CCN(C(C)(C)c2ccccn2)C1 (single isomer, unassigned) [Compound 52]		> 50 mg/kg	
CC(C)(c1ccccn1)N1CC[C@@](CCc2ccc(C#N)cc2)(C(O)c2ccccc2)C1 (single isomer, unassigned) [Compound 57]		≤ 30 mg/kg	
CC(O)[C@@]1(CCc2ccc(C#N)cc2)CCN(C(c2ccc(F)cc2)c2cccnc2)C1 (single isomer, unassigned) [Compound 58]		> 50 mg/kg	
CC(C)C(O)[C@]1(CCc2ccc(C#N)cc2)CCN(C(C)(C)c2ccccn2)C1 (single isomer, unassigned) [Compound 61]		> 50 mg/kg	
CC(C)(c1ccccn1)N1CC[C@@](CCc2ccc(S(C)(=O)=O)cc2)(C2CCCO2)C1 (single isomer, unassigned) [Compound 67]		> 50 mg/kg	
COC[C@@]1(CCc2ccccc2)CCN(N(C)c2ccc(C)nc2)C1 (single isomer, unassigned) [Compound 69]		> 50 mg/kg	
COc1ccc(CN2CC[C@@](CCc3ccc(C#N)cc3)(C(O)C(F)(F)F)C2)cn1 (single isomer, unassigned) [Compound 70]		> 50 mg/kg	
CC(C)(O)[C@@]1(CCc2ccc(C#N)cc2)CCN(C(c2ccc(F)cc2)c2cccnc2)C1 (single isomer, unassigned) [Compound 71]		> 50 mg/kg	
N#Cc1ccc(CC[C@]2(COCc3ccccc3)CCN(C(c3cccnc3)c3cccnc3)C2)cc1 (single isomer, unassigned) [Compound 72]		> 50 mg/kg	
CC(C)(c1ccccn1)N1CC[C@](COCc2ccc(C#N)cc2)(C2CCCO2)C1 (single isomer, unassigned) [Compound 74]		> 50 mg/kg	
Cc1ccc(C(C)(C)N2CC[C@@](CCc3ccc(F)cc3)(C(O)C(F)(F)F)C2)cn1 (single isomer, unassigned) [Compound 78]		≤ 30 mg/kg	
Cc1ccc(C(C)(C)N2CCC(CCc3cccs3)(COC(F)F)C2)cn1 (single isomer, unassigned) [Compound 82, (R or S)-5-(2-(3-((difluoromethoxy)methyl)-3-(2-(thiophen-2-yl)ethyl)pyrrolidin-1-yl)propan-2-yl)-2-methylpyridine citarte]	≤ 30 mg/kg		
CCOCC1(Cn2cnc3cnccc32)CCN(C(C)(C)c2ccc(C)nc2)C1 (single isomer, unassigned) [Compound 85, (R or S)-1-((3-(ethoxymethyl)-1-(2-(6-methylpyridin-3-yl)propan-2-yl)pyrrolidin-3-yl)methyl)-1H-imidazo[4,5-c]pyridine citrate]	≤ 30 mg/kg		
CCOC(c1ccccn1)C1(CCc2cccs2)CCN(C(C)(C)c2ccc(C)nc2)C1 (single isomer, unassigned) [Compound 86, 5-(2-((S or R)-3-((R& S)-ethoxy(pyridin-2-yl)methyl)-3-(2-(thiophen-2-yl)ethyl)pyrrolidin-1-yl)propan-2-yl)-2-methylpyridine citrate]	≤ 30 mg/kg		
Cc1ccc(C(C)(C)N2CCC(CCc3cccs3)(C3OCCc4ccccc43)C2)cn1 (single isomer, unassigned) [Compound 87, 5-(2-((R or S)-3-((S or R)-isochroman-1-yl)-3-(2-(thiophen-2-yl)ethyl)pyrrolidin-1-yl)propan-2-yl)-2-methylpyridine citrate]	≤ 30 mg/kg		
